Measurements published in patent US6864086B2, “Nitric oxide-scavenging system for culturing oocytes, embryos, or other cells” (Board of Supervisors of Louisiana State University and …, priority 1998, dated 2005).
“And” between values parts separate entries of the source, which are not always exact repeats. Equal values may be shown once.

System: bovine embryos
Experiment: Example 9: L-NAME (1 or 1000 nM) added to mBECM containing serum and Hb, pre-hatching development
Format: cell-based
Design: key to Least square mean of embryos developed to 16-cell / Least square mean of embryos developed to Blastocyst / Least square mean of embryos developed to 2-cell / Least square mean of embryos developed to 8-cell / Least square mean of embryos developed to Morula: fraction developed; each embryo scored 1 = developed, 0 = not developed
Details: Hb 1 μg/ml, no L-NAME
Procedure: The basic medium used for maturation of oocytes was tissue culture medium (TCM)-199 with Earle's salts, buffered with 25 mM HEPES (Gibco BRL, Grand Island, N.Y.) and supplemented with 10% (v/v) heat-inactivated fetal bovine serum (FBS; Hyclone Laboratories, Logan, Utah), 1 μg/ml estradiol-17β (NOBL Laboratories, Sioux Center, Iowa), 3 μg/ml bovine FSH (NOBL Laboratories), 6 μg/ml bovine LH (NOBL Laboratories), and 25 μg/ml gentamycin (Sigma Chemical Co., St. Louis, Mo.). The basic medium used for treatment of spermatozoa and fertilization of oocytes was a modified Tyrode's medium (J. Parrish et al., Capacitation of bovine sperm by heparin. Biol. Reprod. 38:1171-1180 (1988)), supplemented with 0.25 mM sodium pyruvate (Gibco BRL), 6 mg/ml fatty acid (FA)-free BSA (No. A-6003, Sigma), 15 μg/ml calcium heparin from porcine intestinal mucosa (183 USP/mg; H-8398, Sigma), and 25 μg/ml gentamycin. Modified bovine embryo culture medium (mBECM) containing 10 μM β-mercaptoethanol was used for culture of embryos, as described in J. Lim et al., “Roles of growth factors in the development of bovine embryos fertilized in vitro and cultured singly in a defined medium,” Reprod. Fertil. Dev., 8:1199-1205 (1996). mBECM supplemented with 10% (v/v) FBS was used for co-culturing inseminated oocytes with CGC. Osmolarity of the medium was maintained within the range of 265-290 mOsm.
All cumulus-oocyte complexes (COC) were collected in Madison, Wis. (BOMED, Inc.) and were shipped in 2 ml of maturation medium in a battery powered incubator via overnight express mail service. Oocytes matured during transit and arrived within 24 h after exposure to maturation medium, pre-equilibrated at 39° C. in 5% CO2 in air. At 22 to 24 h after exposure to the medium, the COCs were inseminated in vitro as described in J. Lim et al., “Intracytoplasmic glutathione concentration and the role of β-mercaptoethanol in preimplantation development of bovine embryos,” Theriogenology, 46:429-439 (1996). At 18 h post-insemination, COCs were cultured in groups (28-40 embryos) in a 4-well multidish (Nunc, Roskilde, Denmark) containing 0.8-ml of mBECM. Embryos were dislodged from CGC at 36 to 48 h post-insemination.
In Example 9, IVF embryos were cultured in MBECM supplemented as follows: 1) no addition (control), 2) Hb (1 μg/ml), 3) Hb plus L-NAME (1 nM), and 4) Hb plus L-NAME (1000 nM). Embryonic development was evaluated up to 192 h post-insemination. A total of 384 oocytes were inseminated, and were randomly and equally allotted to 4 replicates.
Embryos developed to the 2-cell, 8-cell, 16-cell, morula, and blastocyst stages at the pertinent observation times were individually scored ‘1’ (developed). Embryos that had not developed to these stages at the same times were scored ‘0’ (non-developed). Sums of the scores at each stage of development were evaluated by analysis of variance using a general linear model (PROC-GLM) in the SAS statistical programming package (1991). In Example 8, the combined effects of Hb addition and month of oocyte collection were first examined in a 2×7 factorial arrangement. Overall differences in embryonic development in Hb-free and Hb-containing culture systems were further evaluated. […] Differences were regarded as statistically significant where P values were less than 0.05.

In the case of hemoglobin [Hb], the “Number of embryos developed to 2-cell” value (96 embryos, 48 h) is reported as 68, the “Number of embryos developed to 8-cell” value (96 embryos, 60 h) is reported as 54 and the “Number of embryos developed to 16-cell” value (96 embryos, 120 h) is reported as 47. For the same substance, the “Number of embryos developed to Morula” value (96 embryos, 144 h) was 35, the “Number of embryos developed to Blastocyst” value (96 embryos, 192 h) was 30 and the “Least square mean of embryos developed to 2-cell” value (48 h) was 0.708. For the same substance, the “Least square mean of embryos developed to 8-cell” value (60 h) was 0.563, the “Least square mean of embryos developed to 16-cell” value (120 h) was 0.489 and the “Least square mean of embryos developed to Morula” value (144 h) was 0.365. For the same substance, the “Least square mean of embryos developed to Blastocyst” value (192 h) was 0.312 and 0.313.
